Reference: paper PMC11391341, “Rational design and in vitro testing of new urease inhibitors to prevent urinary catheter blockage” (RSC Medicinal Chemistry, 2024)
“Also recorded” adds a separate entry of the source. Read-outs that look alike come from different tables or passages of the source.

Tests used:
[1] = target: T1, urease expressed in whole cell Proteus mirabilis (Proteus mirabilis, UniProt P17086); assay: Urease activity assay (Berthelot), whole-cell P. mirabilis; format: cell-based; conditions: for A1 (dose-response fit parameter) / A2 (dose-response fit parameter): % urease activity; for A1 (dose-response fit parameter) / A2 (dose-response fit parameter) / LOGx0 (dose-response fit): Proteus mirabilis whole cell, Supplementary Table 3; for fold lower IC50 than AHA: whole cell P. mirabilis urease
T1 construct: Urease in P. mirabilis is intracellular; endogenous in cells; host or cells: Proteus mirabilis B4 (Jenkins Group collection, University of Bath), whole cells
T1 sequence (P17086 whole entry): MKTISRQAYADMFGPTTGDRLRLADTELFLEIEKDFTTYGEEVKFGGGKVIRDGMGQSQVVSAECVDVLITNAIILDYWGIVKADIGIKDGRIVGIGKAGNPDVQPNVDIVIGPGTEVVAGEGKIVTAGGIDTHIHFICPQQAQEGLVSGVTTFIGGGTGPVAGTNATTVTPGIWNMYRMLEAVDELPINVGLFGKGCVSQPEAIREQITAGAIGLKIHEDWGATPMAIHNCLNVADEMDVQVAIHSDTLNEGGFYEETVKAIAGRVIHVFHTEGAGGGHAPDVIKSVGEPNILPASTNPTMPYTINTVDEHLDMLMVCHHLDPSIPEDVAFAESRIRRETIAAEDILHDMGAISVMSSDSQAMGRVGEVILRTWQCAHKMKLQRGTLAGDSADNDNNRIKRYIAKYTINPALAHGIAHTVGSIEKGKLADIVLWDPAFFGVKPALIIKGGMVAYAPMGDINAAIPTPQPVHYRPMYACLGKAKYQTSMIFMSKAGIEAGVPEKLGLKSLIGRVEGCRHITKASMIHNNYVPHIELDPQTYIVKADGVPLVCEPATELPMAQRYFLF
Protocol: The in vitro assay used to measure the urease activity was the Berthelot assay, which measure the accumulation of ammonia.[54,55] Compounds were tested using whole-cell P. mirabilis B4 (from the Jenkins Group collection, University of Bath). P. mirabilis was cultured overnight, 37 °C with 200 rpm shaking in 10 mL of Luria-Bertani broth (LB, Merck, Germany). The overnight culture was centrifuged, 3100 g, 10 min, at 4 °C (5810 R Eppendorf); the supernatant was discarded, and the pellet resuspended in phosphate buffer saline (PBS, Fisher Scientific, UK). In each well of a 96-well plate (Corning) 10 μL of 0.5% sulfuric acid was added. P. mirabilis (100 μL, 0.004 mg mL^−1) in phosphate buffer was incubated with the desired compound concentration and urea (100 μL, 50 mM in phosphate buffer) for 30 min at 37 °C.
Experiments were run in triplicate of two technical replicates (n = 6), with 10-fold dilutions of the compounds including a positive and negative control. To each well, 20 μL of 60 mM sodium hydroxide is added. Solution A (50 μL, 106 mM phenol, 191 μM sodium nitroprusside) and solution B (50 μL, 125 mM sodium hydroxide, 125 mM sodium hypochlorite) were added to each well and the plate was incubated for 30 min at 37 °C. The absorbance of the wells was read at 636 nm (SPECTROstar Omega BMG LabTech, Germany). Urease activity was calculated using eqn (1). IC50 was determined using non-linear regression (GraphPad Prism v9).1 [drawing 1]

[2] = Solubility (statement in conclusions); format: physicochemical
[3] = system: HepG2 cells; assay: HepG2 mammalian cell viability (MTT assay); format: cell-based; conditions: for survival of HepG2 cells: 10 mM, 24 h incubation
Protocol: Freezer stocks of HepG2 cells were defrosted and re-suspended in Dulbecco's Eagle medium (DMEM) complete (Gibco, this contains minimum essential media (MEM, Gibco)). A T75 flask (Nunc) was seeded with 10 mL of complete DMEM. Cells were grown for 3–4 days, a 37 °C, 5% CO2, to achieve adherent cells. Old media was removed and 5 mL of PBS added to wash the cells, this was then aspirated. Cells were incubated with 3 mL, 0.25% trypsin (Gibco), and PBS (previously warmed to 37 °C) for 7 min at 37 °C. After incubation cells were checked using a microscope (Nikon TMS inverted phase contrast) to confirm that they were no longer adherent. Cells were dissociated with 4 mL of media and re-suspended by pipetting 10 mL approximately 20 times. Cells were centrifuged for 3 min at 1000 rpm, media was aspirated, and pellet was resuspended in 1 mL of media. Cells were counted using a hemocytometer and new flasks were reseeded with 200 μL of cells to 10 mL of media. To maintain stocks, cells were sub-cultured every 2–3 days.
Compounds, AHA and Bis-TU, were prepared at 10 mM with 1% DMSO in DMEM media. Varying concentrations of compounds were prepared by serial dilution across at 96-well plate (100 μL). MTT (Invitrogen) assay was used to measure the metabolic activity of the HepG2 cells. MTT (1 mg mL^−1) in media was filter sterilized and cell culture plates, 96-well (Nunc), were seeded with 1 × 10^4 cells per well and grown for 24 h. Media/compound was removed and MTT (100 μL) was added for 60 min at 37 °C and then removed. Isopropanol (150 μL) was added and the plate was incubated in foil for 15 min on an orbital shaker. Absorbance was measured at 590 nm (reference filter at 620 nm) (Sunrise, Tecan). The % survival was calculated as per eqn (4).4 [drawing 4]

[4] = system: P. mirabilis B4; assay: Minimum inhibitory concentration (MIC) assay, P. mirabilis; format: cell-based, Proteus mirabilis
Protocol: (§1) The compound was dissolved in sterile water with 5% (v/v) DMSO. To the first column on a 96-well plate (Corning, UK), 200 μL of compound was added, it was then serially diluted two-fold (100 μL) across the plate to column 10. A subculture of P. mirabilis (1 × 10^6 CFU mL^−1) or E. coli NSM59 (1 × 10^6 CFU mL^−1, from the Jenkins Group collection, University of Bath), 100 μL, was added to all columns 1–10. LB broth only was added to column 11, the negative control and 200 μL of P. mirabilis/E. coli subculture was added to column 12, the positive control. The plate was incubated at 37 °C for 18 h, using a SPECTROstar Omega plate reader (BMJ LabTech) the absorbance at 600 nm was measured at regular time points during the 18 h incubation. The plate was shaken for 10 s, at 200 rpm prior to a reading being taken. The MIC was defined as the lowest concentration of compound that inhibited growth and the highest concentration that permitted bacterial growth. Initially, this was done through visualization of the plate after 18 h but also through examination of the growth curves measured at OD600.

[5] = system: E. coli NSM59; assay: Minimum inhibitory concentration (MIC) assay, E. coli; format: cell-based, Escherichia coli
Protocol: as §1

[6] = Delivery across the catheter balloon into artificial urine (UV-vis); format: physicochemical; conditions: 37 °C, 12 h
Protocol: Delivery through the permeable balloon was measured using UV-vis spectroscopy with a quartz cuvette (pathlength 1 cm) (Agilent Cary 60 UV-vis spectrometer). Calibration curves for AHA (Sigma) and N,N′-bis(3-pyridinylmethyl)thiourea (Flurochem, Bis-TU (A11)) were prepared using absorbances 235 nm and 239 nm, respectively (Fig. S5 ^†). Sterile 50 mL beakers were used to mimic the bladder; catheters were inflated with compound solutions, AHA (320 mM) or Bis-TU (85 mM). Biomodics IPN catheters were compared to standard all-silicone catheters (Tiga-Med, Germany). Beakers were filled with artificial urine, prepared according to Nzakizwanayo et al., 30 mL was added to the beakers which were sealed with parafilm and incubated at 37 °C.[45] Every hour for 12 h, 1 mL was removed from the artificial urine surrounding the catheter balloon and the absorbance spectra was measured. The 1 mL was returned to the beaker, so the volume remained constant. The quantity of compound released over time was determined using the calibration curves. Limit of detection (LOD) was calculated by eqn (2), where σ is the standard deviation of the lowest concentration.2 [drawing 2]

[7] = system: P. mirabilis B4; assay: In vitro bladder model of the catheterized urinary tract; format: cell-based, Proteus mirabilis; conditions: balloon inflated with 20 mM compound, Biomodics IPN catheter
Protocol: The in vitro bladder model of a catheterized urinary tract enables the simulation of the crystalline biofilm and measurement of the blockage of the catheter caused by a P. mirabilis infection.[44,45] The artificial bladders were infected with a high inoculum of bacteria to mimic a late-stage CAUTI, average inoculation was 3.36 × 10^7 CFU mL^−1. Each model was catheterized with a Biomodics IPN catheter, and the balloons were inflated with 20 mM AHA in a 9 : 1 mixture of saline and DMSO; 20 mM Bis-TU in a 9 : 1 mixture of saline and DMSO; and the control bladder a 9 : 1 mixture of saline and DMSO. The artificial bladders were allowed to equilibrate over 18 h before inoculation. There is approximately a four-fold dilution during the diffusion of the compound in the artificial urine (∼5 mM at the start), however, this concentration changes once the pumps start because of the continual dilution from the filling of the bladder from the ‘kidneys’ and the drainage via the catheter. Monitoring of the pH and CFU mL^−1 in the bladder allowed tracking of the experiment (Fig. 6A and B). […] The blockage of the catheters was the end of the experiment and allowed determination of whether the compounds could increase the lifetime of the catheter (Fig. 6C).
In vitro bladder models were set up as described by Nzakizwanayo et al., the flow rate was set to run at 0.8 mL min^−1 using a Watson-Marlow 323S/D (030.3134.3DU) pump.[45] The artificial bladders were maintained at 37 °C and catheterized with Biomodics IPN catheters (donated by Biomodics ApS). Balloons were inflated with 10 mL of the following solutions: control bladder: a 9 : 1 mixture of saline (150 mM sodium chloride) and DMSO; Bis-TU bladder: 20 mM Bis-TU in a 9 : 1 mixture of saline and DMSO; and AHA bladder: 20 mM AHA in a 9 : 1 mixture of saline and DMSO. The models were set up and filled with artificial urine until they started to drain, the pump was then paused, and the compound solution allowed to equilibrate with the artificial urine in the bladder for 18 h. P. mirabilis B4 (from the Jenkins Group bacteria collection) was grown at 37 °C overnight with 200 rpm shaking in 10 mL of LB (Merck, Germany). […] Inoculation and CFU was determined by the Miles and Misra quantification technique.[56] At regular time intervals during the experiment, a sample was taken aseptically from each artificial bladder for bacterial quantification and to measure the pH. The end of the experiment was determined when the bladders blocked. Additionally, the artificial bladders were monitored by time-lapse photography overnight using a Nikon D3100 camera with photos taken every 2 min.

Molecule	IC50 ([1]; whole cell Proteus mirabilis, ± standard deviation)	IC50 [1] [µM]	A1 (dose-response fit parameter) [1] [%]	A2 (dose-response fit parameter) [1] [%]	LOGx0 (dose-response fit) [1]	solubility [2]	fold lower IC50 than AHA [1]	survival of HepG2 cells [3]	effect on HepG2 cells, AHA vs Bis-TU ([3]; concentrations below 1.25 mM, 24 h)	inhibitory effect on growth [4]	inhibitory effect on growth [5]	release across balloon of Biomodics IPN catheter [6]	release across balloon of standard silicone catheter [6]	catheter blockage time (lifetime of the catheter) [7]	pH in the bladder model [7]	quantity of bacteria (CFU mL^−1) in the bladder model [7]	IC50 ([1]; whole cell Proteus mirabilis, ± standard deviation, read-out: IC50) [µM]
NC(=O)CS [Compound 2-MA, 2-mercaptoacetamide, reference compound]	did not fit to a sigmoidal dose–response curve; also recorded: No fit																
NC(=S)Nc1ccccc1 [Compound A5, N-phenylthiourea]		9.66	-2834	141.8	-5.015												
NC(=S)NCc1ccccc1 [Compound A6, benzylthiourea]		22.7	5.57	78.71	-4.644												
S=C(NCc1cccnc1)NCc1cccnc1 [Compound A11, N,N′-bis(3-pyridinylmethyl)thiourea]		1.4	-6.896	85.9	-5.851	relatively low solubility	ca. 25 fold	affect the survival	no difference	only a modest inhibitory effect	only a modest inhibitory effect	zero order kinetics release	no release	significantly outperformed the clinical standard AHA, and the control	lower than that of the AHA and control bladders	comparable across all bladders	
O=c1c(O)c(-c2ccc(O)c(O)c2)oc2cc(O)cc(O)c12 [Quercetin, quercetin, reference compound]		0.866	-6.874	68.53			ca. 25 fold										
Acetohydroxamic acid [AHA, reference compound]			1.739	91.3	-4.436			affect the survival		only a modest inhibitory effect	only a modest inhibitory effect	zero order kinetics release	no release			comparable across all bladders	36.6
